Reference: PubChem BioAssay AID328 (DTP/NCI, 2004)
Values joined by “and” are separate entries in the source; they are usually repeats but may differ in a detail not shown here. Equal values may be shown once. Inconclusive results and toxic doses are left out.

Tested on: BDF1 mice, P388 leukemia ip, median survival T/C
Assay: NCI In Vivo Anticancer Drug Screen. Data for tumor model P388 Leukemia (intraperitoneal) in B6D2F1 (BDF1) mice
Conditions: endpoint: median survival time, higher = longer survival
Procedure, shortened: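 Steps: implant the tumour, treat one group with compound and another with vehicle, record survival, then divide treated by control.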

[1] = dose: 25.0 mg/kg/injection, schedule: Q01DX009 (ip), vehicle: Klucel (hydroxypropylcellulose) (HPC)
[2] = dose: 50.0 mg/kg/injection, schedule: Q01DX009 (ip), vehicle: Klucel (hydroxypropylcellulose) (HPC)
[3] = dose: 100.0 mg/kg/injection, schedule: Q04DX003 (ip), vehicle: Klucel (hydroxypropylcellulose) (HPC)
[4] = dose: 100.0 mg/kg/injection, schedule: Q04DX003 (ip), vehicle: saline with Tween-80
[5] = dose: 200.0 mg/kg/injection, schedule: Q04DX003 (ip), vehicle: saline with Tween-80
[6] = dose: 400.0 mg/kg/injection, schedule: Q04DX003 (ip), vehicle: saline
[7] = dose: 25.0 mg/kg/injection, schedule: Q01DX009 (ip), vehicle: saline
[8] = dose: 50.0 mg/kg/injection, schedule: Q04DX003 (ip), vehicle: saline
[9] = dose: 100.0 mg/kg/injection, schedule: Q04DX003 (ip), vehicle: saline
[10] = dose: 200.0 mg/kg/injection, schedule: Q04DX003 (ip), vehicle: saline
[11] = dose: 0.62 mg/kg/injection, schedule: Q01DX009 (ip), vehicle: saline
[12] = dose: 1.25 mg/kg/injection, schedule: Q01DX009 (ip), vehicle: saline
[13] = dose: 25.0 mg/kg/injection, schedule: Q04DX003 (ip), vehicle: saline

CNc1ccc(/C=C2\C=Cc3ccccc32)cc1
T/C (dose: 12.0 mg/kg/injection, schedule: Q01DX009 (ip), vehicle: Klucel (hydroxypropylcellulose) (HPC)): 118 % of control
T/C (dose: 12.0 mg/kg/injection, schedule: Q01DX009 (ip), vehicle: gum acacia): 107 % of control
T/C (dose: 12.5 mg/kg/injection, schedule: Q04DX003 (ip), vehicle: gum acacia): 103 % of control
T/C [1]: 100 % of control
T/C (dose: 25.0 mg/kg/injection, schedule: Q01DX009 (ip), vehicle: gum acacia): 103 % of control
T/C (dose: 25.0 mg/kg/injection, schedule: Q04DX003 (ip), vehicle: Klucel (hydroxypropylcellulose) (HPC)): 104 % of control
T/C (dose: 25.0 mg/kg/injection, schedule: Q04DX003 (ip), vehicle: gum acacia): 100 % of control
T/C [2]: 90 % of control
T/C (dose: 50.0 mg/kg/injection, schedule: Q01DX009 (ip), vehicle: gum acacia): 92 % of control
T/C (dose: 50.0 mg/kg/injection, schedule: Q04DX003 (ip), vehicle: Klucel (hydroxypropylcellulose) (HPC)): 100 % of control
T/C (dose: 50.0 mg/kg/injection, schedule: Q04DX003 (ip), vehicle: gum acacia): 103 % of control
T/C [3]: 86 % of control and 95 % of control

O=C(O)c1cc2ccccc2c2cc(Br)ccc12
T/C [4]: 100 % of control
T/C [5]: 104 % of control

CCOCCC(O)CC (stereo unspecified)
T/C (dose: 178.0 mg/kg/injection, schedule: Q04DX003 (ip), vehicle: saline): 100 % of control
T/C (dose: 266.0 mg/kg/injection, schedule: Q04DX003 (ip), vehicle: saline): 100 % of control
T/C [6]: 100 % of control

CN(C)Cc1ccc([N+](=O)[O-])cc1
T/C (dose: 12.5 mg/kg/injection, schedule: Q01DX009 (ip), vehicle: saline): 116 % of control
T/C [7]: 119 % of control
T/C (dose: 50.0 mg/kg/injection, schedule: Q01DX009 (ip), vehicle: saline): 104 % of control
T/C [8]: 107 % of control
T/C [9]: 90 % of control
T/C [10]: 107 % of control

O=[N+]([O-])c1cccc2c1CCCC2
T/C [4]: 110 % of control
T/C [5]: 110 % of control
T/C (dose: 400.0 mg/kg/injection, schedule: Q04DX003 (ip), vehicle: saline with Tween-80): 120 % of control

CCCCNC(C)(C)C(SSSC(c1ccc(C(F)(F)F)cc1)C(C)(C)NCCCC)c1ccc(C(F)(F)F)cc1 (stereo unspecified)
T/C [9]: 120 % of control
T/C [6]: 120 % of control

COC1CCC(OC2C(C)C(O)(C(C)C(=O)O)OC(CC3CC(OC)C(C)C4(O3)OC(C)(C3CCC(C5CCC(C6OC(C)(O)C(C)C(OC)C6C)O5)O3)C(OC)C4C)C2(C)OC)OC1C (stereo unspecified)
T/C [11]: 94 % of control
T/C [12]: 96 % of control

CC(=O)Oc1cc2cnc3c4cc(OC(C)=O)c(OC(C)=O)cc4ccc3c2cc1OC(C)=O
T/C [11]: 106 % of control
T/C [12]: 94 % of control
T/C (dose: 2.5 mg/kg/injection, schedule: Q01DX009 (ip), vehicle: saline): 97 % of control
T/C (dose: 5.0 mg/kg/injection, schedule: Q01DX009 (ip), vehicle: saline): 86 % of control
T/C (dose: 20.0 mg/kg/injection, schedule: Q01DX009 (ip), vehicle: saline): 109 % of control
T/C (dose: 80.0 mg/kg/injection, schedule: Q01DX009 (ip), vehicle: saline): 86 % of control
T/C (dose: 120.0 mg/kg/injection, schedule: Q01DX009 (ip), vehicle: saline): 90 % of control
T/C (dose: 240.0 mg/kg/injection, schedule: Q01DX009 (ip), vehicle: saline): 95 % of control

O=c1[nH]cnc2c1nnn2C1OC(CO)C(O)C1O (stereo unspecified)
T/C (dose: 50.0 mg/kg/injection, schedule: Q01DX006 (ip), vehicle: saline): 95 % of control
T/C (dose: 130.0 mg/kg/injection, schedule: Q01DX006 (ip), vehicle: saline): 117 % of control

CC(=O)N1C(=O)NC(=O)C1(CSCc1ccccc1)CSCc1ccccc1
T/C [13]: 98 % of control
T/C [8]: 98 % of control
T/C [9]: 116 % of control
T/C [10]: 107 % of control
T/C [6]: 99 % of control

Cc1cccc(/C=N/Nc2ccccn2)n1
T/C (dose: 50.0 mg/kg/injection, schedule: Q01DX005 (ip), vehicle: saline with Tween-80): 108 % of control
T/C (dose: 100.0 mg/kg/injection, schedule: Q01DX005 (ip), vehicle: saline with Tween-80): 118 % of control

Cc1ccc(Nc2nnc(N=Nc3ccccc3)s2)cc1C
T/C (dose: 100.0 mg/kg/injection, schedule: Q01DX001 (ip), vehicle: Klucel (hydroxypropylcellulose) (HPC)): 100 % of control
T/C (dose: 200.0 mg/kg/injection, schedule: Q01DX001 (ip), vehicle: Klucel (hydroxypropylcellulose) (HPC)): 90 % of control
T/C (dose: 400.0 mg/kg/injection, schedule: Q01DX001 (ip), vehicle: Klucel (hydroxypropylcellulose) (HPC)): 100 % of control

COc1cc2c3c(c1)-c1c(ccc(OC)c1Oc1nnnn1-c1ccccc1)CC3N(C)CC2 (stereo unspecified)
T/C (dose: 12.5 mg/kg/injection, schedule: Q04DX003 (ip), vehicle: saline): 108 % of control
T/C [13]: 115 % of control
T/C [8]: 115 % of control
T/C [9]: 108 % of control
T/C [10]: 115 % of control

O=[N+]([O-])c1ccccc1S(=O)(=O)Oc1ccccc1
T/C [3]: 100 % of control
T/C (dose: 200.0 mg/kg/injection, schedule: Q04DX003 (ip), vehicle: Klucel (hydroxypropylcellulose) (HPC)): 100 % of control
T/C (dose: 400.0 mg/kg/injection, schedule: Q04DX003 (ip), vehicle: Klucel (hydroxypropylcellulose) (HPC)): 100 % of control

CCC(=O)O[C@H]1CC[C@H]2[C@@H]3CCC4=CC(=O)CC[C@]4(C)[C@H]3CC[C@]12C
T/C (dose: 100.0 mg/kg/injection, schedule: Q01DX009 (sc), vehicle: steriod suspending solution): 104 % of control
T/C (dose: 100.0 mg/kg/injection, schedule: Q04DX003 (sc), vehicle: steriod suspending solution): 105 % of control
T/C (dose: 200.0 mg/kg/injection, schedule: Q01DX009 (sc), vehicle: steriod suspending solution): 87 % of control
T/C (dose: 200.0 mg/kg/injection, schedule: Q04DX003 (sc), vehicle: steriod suspending solution): 100 % of control
T/C (dose: 400.0 mg/kg/injection, schedule: Q01DX009 (sc), vehicle: steriod suspending solution): 91 % of control
T/C (dose: 400.0 mg/kg/injection, schedule: Q04DX003 (sc), vehicle: steriod suspending solution): 100 % of control

O=C(/C=N/O)/C=N/O (tested in a mixture with another compound)
T/C (dose: 6.0 mg/kg/injection, schedule: Q01DX009 (ip), vehicle: saline): 108 % of control
T/C (dose: 6.0 mg/kg/injection, schedule: Q04DX003 (ip), vehicle: saline): 100 % of control
T/C (dose: 12.0 mg/kg/injection, schedule: Q01DX009 (ip), vehicle: saline): 100 % of control
T/C (dose: 12.0 mg/kg/injection, schedule: Q04DX003 (ip), vehicle: saline): 113 % of control
T/C [7]: 100 % of control
T/C [13]: 95 % of control

COc1cccc2c1C(=N)c1c(O)c3c(c(O)c1C2=O)C[C@@](O)(C(C)=O)C[C@@H]3OC1CC(N)C(O)C(C)O1 (stereo partly specified)
T/C (dose: 3.46 mg/kg/injection, schedule: Q04DX003 (ip), vehicle: saline): 177 % of control
T/C (dose: 5.76 mg/kg/injection, schedule: Q04DX003 (ip), vehicle: saline): 186 % of control
T/C (dose: 9.6 mg/kg/injection, schedule: Q04DX003 (ip), vehicle: saline): 180 % of control

CCCCCCCCCCCC(=O)CCC
T/C (dose: 100.0 mg/kg/injection, schedule: Q04DX003 (ip), vehicle: other): 100 % of control
T/C (dose: 200.0 mg/kg/injection, schedule: Q04DX003 (ip), vehicle: other): 91 % of control and 100 % of control
T/C (dose: 400.0 mg/kg/injection, schedule: Q04DX003 (ip), vehicle: other): 91 % of control and 100 % of control

Cc1ccc(S(=O)(=O)NCN2C(=O)c3ccccc3C2=O)cc1
T/C (dose: 12.5 mg/kg/injection, schedule: Q01DX009 (ip), vehicle: Klucel (hydroxypropylcellulose) (HPC)): 100 % of control
T/C [1]: 100 % of control
T/C (dose: 25.0 mg/kg/injection, schedule: Q01DX009 (ip), vehicle: saline with Tween-80): 86 % of control
T/C [2]: 105 % of control
T/C (dose: 100.0 mg/kg/injection, schedule: Q01DX009 (ip), vehicle: saline): 91 % of control
